This assay addresses T1, HIV-1 protease (Human immunodeficiency virus type 1 group M subtype B, UniProt P04585).
T1 construct: The protease (or proteinase) enzyme, consisting of only 99 amino acids
The assay can be described thus: In vitro HIV protease inhibitory assay (fluorescently labeled substrate, avidin-polystyrene particles). The class given is biochemical. Particulars: for inhibition at 3.3 µM: HIV-1 dose 3.3 μM; for inhibition at 10 µM: HIV-1 dose 10.0 μM; for inhibition at 30 µM: HIV-1 dose 30.0 μM. In a few lines: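 Biotinylated, FITC-labelled peptide substrate cleaved by HIV-1 protease for 1 h at room temperature in the dark, in 0.1 M sodium acetate pH 5.5 with 1.0 M NaCl and 0.05% NP-40. Product separated from substrate with avidin-polystyrene beads and filtration; fluorescence read as percent inhibition at stated compound concentrations.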

Molecules are shown by their SMILES.

These results are taken from patent publication US5977169A, “Substituted tetronic acids useful for treating HIV and other retroviruses” (priority 1997, dated 1999).

The inhibition is the drop in the measured response relative to a control, in per cent. As to `CC(C)C1OC(=O)C(C(c2ccccc2)C2CC2)=C1O` (centres unmarked) [BX-10, 2(5H)-Furanone, 3-(cyclopropylphenylmethyl)-4-hydroxy-5-(1-methylethyl)-], the inhibition at 3.3 µM amounted to 40.5%, the inhibition at 10 µM was 74.6% and the inhibition at 30 µM worked out at 98.6%.

As to `O=C1OC2(CCCCC2CCc2ccccc2)C(O)=C1C(c1ccccc1)C1CC1` (centres unmarked) [IX-4, 1 -Oxaspiro[4.5]dec-3-en-2-one, 3-(cyclo-propylphenylmethyl)-5-hydroxy--6-(2-phenylethyl)-], the inhibition at 10 µM amounted to 78.1% and the inhibition at 30 µM was determined as 86%. Further, for the setting “test compound concentration 3.3 μM”, the “HIV-1 Protease % Inhibition” value was determined as 56.89%.

On to `CC(C)(C)C(C1=C(O)C(Cc2ccccc2)(Cc2ccccc2)OC1=O)c1cccc(NS(=O)(=O)c2ccc(C#N)cc2)c1` (centres unmarked) [IX-54], for which the inhibition at 3.3 µM turned out to be 102%, the inhibition at 10 µM is 105% and the inhibition at 30 µM amounted to 92.4%.

With `O=C1O/C(=C\c2ccccc2)C(O)=C1C(c1ccccc1)C1CC1` (centres unmarked) [JX-2, 5-Benzylidene-3-(cyclopropyl-phenyl-methyl)-4-hydroxy-5H-furan-2-one], the inhibition at 3.3 µM came to 56.9%, the inhibition at 10 µM was 87.7% and the inhibition at 30 µM was determined as 103%.

In the case of `CCCC1(CCC)OC(=O)C(C(c2cccc(NS(=O)(=O)c3ccc(C#N)cc3)c2)C(C)(C)C)=C1O` (centres unmarked) [IX-25, Benzenesulfonamide, 4-Cyano-N-(3-(1-(4-hydroxy-2-oxo-5,5-dipropyl-2,5-dihydro-furan-3-yl)-2,2-dimethyl-propyl)-phenyl)-], the inhibition at 3.3 µM was 120%, the inhibition at 10 µM turned out to be 120% and the inhibition at 30 µM stood at 117%.

On to `CCCC1(Cc2ccccc2)OC(=O)C(C(c2ccccc2)C2CC2)=C1O` (centres unmarked) [DX-4, 2(5H)-Furanone, 3-(cyclopropylphenylmethyl)-4-hydroxy-5-(phenyl-methyl)-5-propyl-], for which the inhibition at 3.3 µM amounted to 125%, the inhibition at 10 µM stood at 128% and the inhibition at 30 µM is 116%.

As to `CCCCC(CC)C1OC(=O)C(C(c2ccccc2)C2CC2)=C1O` (centres unmarked) [GX-5, 2(5H)-Furanone, 3-(cyclopropylphenylmethyl)-5-(1-ethylpentyl)-4-hydroxy-], the inhibition at 3.3 µM was 94%, the inhibition at 10 µM turned out to be 94.1% and the inhibition at 30 µM was 99.2%.

As for `CCC(C1=C(O)C(CCc2ccccc2)OC1=O)c1ccccc1` (centres unmarked) [BX-16, 2(5H)-Furanone, 4-hydroxy-5-(2-phenylethyl)-3-(1-phenylpropyl)-], the inhibition at 3.3 µM worked out at 41.4%, the inhibition at 10 µM worked out at 71.4% and the inhibition at 30 µM was determined as 80.3%.

For the compound `CCCC1(CCC)OC(=O)C(C(c2cccc(NS(=O)(=O)c3ccc(C#N)cn3)c2)C2CC2)=C1O` (centres unmarked) [IX-35, 5-cyano-2-pyridinesulfonamide, N-(3-(cyclopropyl(2,5-dihydro-4-hydroxy-2-oxo-5,5-dipropyl-3-furanyl)methyl)phenyl)-], the inhibition at 3.3 µM was found to be 82.2%, the inhibition at 10 µM is 98.8% and the inhibition at 30 µM was 91.9%.

On to `CCCC1(CCC)OC(=O)C(C(c2cccc([N+](=O)[O-])c2)C2CC2)=C1O` (centres unmarked) [IX-1, 2(5H)-Furanone, 3-(cyclopropyl(3-nitrophenyl)methyl)-4-hydroxy-5,5-dipropyl-], for which the inhibition at 3.3 µM came out at 108%, the inhibition at 10 µM was 121% and the inhibition at 30 µM amounted to 122%.

For the compound `O=C1OC(CCCc2ccccc2)(CC2CC2)C(O)=C1C(c1ccccc1)C1CC1` (centres unmarked) [DX-14], where the note is “HIV-1 dose 0.123 μM”, the inhibition at 0.123 µM stood at 89.2%. For the same compound, the inhibition at 0.37 µM (HIV-1 dose 0.37 μM) came out at 104%.

For the compound `CCCC1(CCC)OC(=O)C(C(c2ccccc2)c2cccc(NS(=O)(=O)c3cn(C)cn3)c2)=C1O` (centres unmarked) [IX-48, 1H-Imidazole-4-sulfonamide, N-(3-((5,5-dipropyl-4-hydroxy-2-oxo-2,5-dihydro-3 furanyl)-phenyl-methyl)phenyl)-1-methyl-], the inhibition at 3.3 µM turned out to be 94.5%, the inhibition at 10 µM is 94.7% and the inhibition at 30 µM was determined as 89.1%.

Turning to `CC(C)C1(CCCc2ccccc2)OC(=O)C(C(c2ccccc2)C2CC2)=C1O` (centres unmarked) [DX-17, 2(5H)-Furanone, 3-(cyclopropylphenylmethyl)-4-hydroxy-5-(1-methylethyl)-5-(3--phenylpropyl)-], the inhibition at 3.3 µM stood at 103%, the inhibition at 10 µM came to 97.6% and the inhibition at 30 µM was determined as 96%.

In the case of `CCC/C=C1\OC(=O)C(C(c2ccccc2)C2CC2)=C1O` (centres unmarked) [JX-4, 5-Butylidene-3-(cyclopropyl-phenyl-methyl)-4-hydroxy-5H-furan-2-one], the inhibition at 3.3 µM stood at 85.9%, the inhibition at 10 µM was determined as 99.2% and the inhibition at 30 µM amounted to 113%.

On to `CCCC1(CCC)OC(=O)C(C(c2cccc(NC(=O)OCc3ccccc3)c2)C2CC2)=C1O` (centres unmarked) [IX-32, Carbamic acid, (3-(cyclopropyl(2,5-dihydro-4-hydroxy-2-oxo-5,5-dipropyl-3-furanyl)methyl)phenyl)-, phenylmethyl ester], for which the inhibition at 3.3 µM came out at 100%, the inhibition at 10 µM is 106% and the inhibition at 30 µM was determined as 111%.

Consider `O=C1OC2(CCCCCC2)C(O)=C1C(c1ccccc1)C1CC1` (centres unmarked) [IX-8, 1-Oxaspiro[4.6]undec-3-en-2-one, 3-(cyclo-propylphenylmethyl)-4-hydroxy-], for which the inhibition at 3.3 µM is 104%, the inhibition at 10 µM was 108% and the inhibition at 30 µM is 104%.

Turning to `O=C1OC(CCc2ccccc2)(CCc2ccccc2)C(O)=C1C(c1ccccc1)C1CC1` (centres unmarked) [DX-9, 2(5H)-Furanone, 3-(cyclopropylphenylmethyl)-4-hydroxy-5,5-bis(2-phenylethyl)-], the inhibition at 3.3 µM amounted to 86.7%, the inhibition at 10 µM is 104% and the inhibition at 30 µM worked out at 99.8%.

With `CC(C)C(C1=C(O)C(CCCc2ccccc2)OC1=O)c1ccccc1` (centres unmarked) [FX-4, 2(5H)-Furanone, 4-hydroxy-3-(2-methyl-1-phenylpropyl)-5-(3-phenylpropyl)-], the inhibition at 3.3 µM was 56.6%, the inhibition at 10 µM worked out at 84.4% and the inhibition at 30 µM was determined as 96.5%.

Regarding `O=C1OC2(CCCCC2Cc2ccccc2)C(O)=C1C(c1ccccc1)C1CC1` (centres unmarked) [IX-6, 1-Oxaspiro[4.5]dec-3-en-2-one, 3-(cyclo-propylphenylmethyl)-4-hydroxy--6-(2-phenylmethyl)-], the inhibition at 3.3 µM was 101%, the inhibition at 10 µM was 104% and the inhibition at 30 µM is 105%.

Regarding `CCCC1(CCC)OC(=O)C(C(CC(C)C)c2cccc(NS(=O)(=O)c3cn(C)cn3)c2)=C1O` (centres unmarked) [IX-22], the inhibition at 3.3 µM came to 94.3%, the inhibition at 10 µM stood at 96.3% and the inhibition at 30 µM is 94.5%.

With `CC1(CCCc2ccccc2)OC(=O)C(C(c2ccccc2)C2CC2)=C1O` (centres unmarked) [DX-10, 2(5H)-Furanone, 3-(cyclopropylphenylmethyl)-4-hydroxy-5-methyl-5-(3-phenyl-propyl)-], the inhibition at 3.3 µM was found to be 112%, the inhibition at 10 µM was found to be 104% and the inhibition at 30 µM came out at 91.5%.

Take `CCCC1(CCC)OC(=O)C(C(c2cccc(N)c2)C2CC2)=C1O` (centres unmarked) [IX-11, 2(5H)-Furanone, 3-((3-aminophenyl)cyclopropylmethyl)-4-hydroxy-5,5-dipropyl-]: the inhibition at 3.3 µM was found to be 108%, the inhibition at 10 µM amounted to 108% and the inhibition at 30 µM came to 114%.

As to `CCCCC1(CCCc2ccccc2)OC(=O)C(C(c2ccccc2)C2CC2)=C1O` (centres unmarked) [DX-12, 2(5H)-Furanone, 5-butyl-3-(cyclopropylphenylmethyl)-4-hydroxy-5-(3-phenyl-propyl)-], the inhibition at 3.3 µM turned out to be 116%, the inhibition at 10 µM amounted to 129% and the inhibition at 30 µM was 123%.

As for `CCCC1(CCC)OC(=O)C(C(c2cccc(NS(=O)(=O)c3cccc4ccccc34)c2)C2CC2)=C1O` (centres unmarked) [IX-19], the inhibition at 3.3 µM came out at 103%, the inhibition at 10 µM amounted to 126% and the inhibition at 30 µM turned out to be 105%.

Consider `CCCC1(Cc2ccccc2)OC(=O)C(C(c2cccc(NS(=O)(=O)c3ccc(F)cc3)c2)C(C)C)=C1O` (centres unmarked) [IX-29, Benzenesulfonamide, N-(3-(1-(2,5-dihydro-4-hydroxy-2-oxo-5-(phenylmethyl)-5-propyl-3-furanyl)-2-methylpropyl)phenyl)-4-fluoro-], for which the inhibition at 3.3 µM was 94.9%, the inhibition at 10 µM was determined as 102% and the inhibition at 30 µM is 93.3%.

Turning to `CCCC1(CCC)OC(=O)C(C(c2cccc(NS(=O)(=O)c3ccc(C#N)cc3)c2)C2CCCC2)=C1O` (centres unmarked) [IX-41], the inhibition at 3.3 µM was 97.4%, the inhibition at 10 µM came to 96.9% and the inhibition at 30 µM was determined as 101%.

In the case of `O=C1OC2(CCCCCCC2)C(O)=C1C(c1ccccc1)C1CC1` (centres unmarked) [CX-2, 1-Oxaspiro[4.7]dodec-3-en-2-one, 3-(cyclopropylphenylmethyl)-4-hydroxy-], the inhibition at 10 µM turned out to be 104% and the inhibition at 30 µM worked out at 110%. Moreover, the inhibition at 1.1 µM (HIV-1 dose 1.1 μM) worked out at 96%.

For `O=C1OC(C(O)CCc2ccccc2)C(O)=C1C(c1ccccc1)C1CC1` (centres unmarked) [BX-8, 2(5H)-Furanone, 3-(cyclopropylphenylmethyl)-4-hydroxy-5-(1-hydroxy-3--phenylpropyl)-], the inhibition at 3.3 µM was found to be 51%, the inhibition at 10 µM is 73.3% and the inhibition at 30 µM turned out to be 78.2%.

In the case of `CCCC1(CCC)OC(=O)C(C(Cc2ccccc2)c2cccc(NS(=O)(=O)c3ccc(C#N)cc3)c2)=C1O` (centres unmarked) [IX-39, Benzenesulfonamide, 4-cyano-N-(3-(1-(4-hydroxy-2-oxo-5,5-dipropyl-2,5-dihydro-furan-3-yl)-2-phenyl-ethyl)-phenyl)-], the inhibition at 3.3 µM is 76.8%, the inhibition at 10 µM came to 78.1% and the inhibition at 30 µM is 106%.
